Data published in publication PMC3091812 (Neuropeptides, 2011).

Experiments:
[1] = tested on: HEK-293 cells; assay: Caspase-3 activity assay, protection from 3-nitropropionate; assay type: cell-based, Human; conditions: 8 mM 3-NP, 12 hours, over control
[2] = tested on: HEK-293 cells; assay: Caspase-3 activity assay, protection from staurosporine; assay type: cell-based, Human; conditions: 1 μM staurosporine, 12 hours, vs citrate buffer control

Compound | increase of caspase-3 activity by toxin [1] | increase of caspase-3 activity by toxin [2]
O=C(O)CC[N+](=O)[O-] [3-NP, 3-nitropropionate] | approximately 100% | 
CN[C@@H]1C[C@H]2O[C@@](C)([C@@H]1OC)n1c3ccccc3c3c4c(c5c6ccccc6n2c5c31)C(=O)NC4 [staurosporine] |  | approximately 80%
